Data as given in article PMC10008561 (Nature Communications, 2023).
“And” between values parts separate entries of the source, which are not always exact repeats. Equal values may be shown once. Read-outs that look alike come from different tables or passages of the source.

Tests used:
human KOR (Gi1) = molecular target: T1, human KOR (Gi1) (Homo sapiens, UniProt P41145); assay: cell-based
T1 construct: expressed in transfected cells; host or cells: HEK293T

human KOR (Gi2) = molecular target: T2, human KOR (Gi2) (Homo sapiens, UniProt P41145); assay: cell-based; conditions: HEK-293T
T2 construct: expressed in transfected cells; host or cells: HEK293T
T2 sequence (P41145 whole entry): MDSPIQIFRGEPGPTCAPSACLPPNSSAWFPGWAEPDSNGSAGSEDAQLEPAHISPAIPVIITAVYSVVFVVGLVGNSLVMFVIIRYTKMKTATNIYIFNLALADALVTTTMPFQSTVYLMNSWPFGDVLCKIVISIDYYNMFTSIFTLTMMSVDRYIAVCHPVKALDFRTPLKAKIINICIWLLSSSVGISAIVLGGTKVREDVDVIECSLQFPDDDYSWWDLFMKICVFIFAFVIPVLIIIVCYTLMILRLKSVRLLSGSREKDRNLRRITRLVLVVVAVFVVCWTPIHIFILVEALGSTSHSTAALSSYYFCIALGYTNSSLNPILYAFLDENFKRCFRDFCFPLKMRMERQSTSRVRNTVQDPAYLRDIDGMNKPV

human KOR (Gi3) = molecular target: T3, human KOR (Gi3) (Homo sapiens, UniProt P41145); assay: cell-based; conditions: HEK-293T
T3 construct: expressed in transfected cells; host or cells: HEK293T
T3 sequence (P41145 whole entry): as above

human KOR (GoA) = molecular target: T4, human KOR (GoA) (Homo sapiens, UniProt P41145); assay: cell-based; conditions: HEK-293T
T4 construct: expressed in transfected cells; host or cells: HEK293T
T4 sequence (P41145 whole entry): as above

human KOR (GoB) = molecular target: T5, human KOR (GoB) (Homo sapiens, UniProt P41145); assay: cell-based; conditions: HEK-293T
T5 construct: expressed in transfected cells; host or cells: HEK293T
T5 sequence (P41145 whole entry): as above

human KOR (Gz) = molecular target: T6, human KOR (Gz) (Homo sapiens, UniProt P41145); assay: cell-based; conditions: HEK-293T
T6 construct: expressed in transfected cells; host or cells: HEK293T
T6 sequence (P41145 whole entry): as above

human KOR (Gustducin) [1] = molecular target: T7, human KOR (Gustducin) (Homo sapiens, UniProt P41145); assay: cell-based
T7 construct: expressed in transfected cells; host or cells: HEK293T
T7 sequence (P41145 whole entry): as above

human KOR (β-arrestin 1) = molecular target: T8, human KOR (β-arrestin 1) (Homo sapiens, UniProt P41145); assay: cell-based; conditions: HEK-293T
T8 construct: expressed in transfected cells; host or cells: HEK293T
T8 sequence (P41145 whole entry): as above

human KOR (β-arrestin 2) = molecular target: T9, human KOR (β-arrestin 2) (Homo sapiens, UniProt P41145); assay: cell-based; conditions: HEK-293T
T9 construct: expressed in transfected cells; host or cells: HEK293T
T9 sequence (P41145 whole entry): as above

human KOR [2] = molecular target: T10, human KOR (Homo sapiens, UniProt P41145); assay: cell-based
T10 sequence (P41145 whole entry): as above

human KOR [3] = molecular target: T11, human KOR (Homo sapiens, UniProt P41145, Q115N); assay: cell-based; conditions: HEK-293T
T11 construct: expressed in transfected cells; host or cells: HEK 293T (ATCC, CRL-3216)
T11 sequence (P41145 whole entry Q115N): as the sequence (P41145 whole entry) above, with Q115N counted along it

human KOR [4] = molecular target: T12, human KOR (Homo sapiens, UniProt P41145, W287A); assay: cell-based; conditions: HEK-293T
T12 construct: expressed in transfected cells; host or cells: HEK 293T (ATCC, CRL-3216)
T12 sequence (P41145 whole entry W287A): as the sequence (P41145 whole entry) above, with W287A counted along it

human KOR [5] = molecular target: T10, human KOR; assay: cell-based; remark: listed apart in the source
human KOR [6] = molecular target: T11, human KOR; assay: cell-based; conditions: HTLA
human KOR [7] = molecular target: T12, human KOR; assay: cell-based; conditions: HTLA
KOR [8] = format: cell-based, human
KOR [9] = assay: Bias factor, Gz vs β-arrestin2 (BRET), U50,488 as reference; format: cell-based, human
human KOR [10] = molecular target: T10, human KOR; assay: cell-based; set-up: expressed in transfected cells; host or cells: HEK 293T (ATCC, CRL-3216); conditions: HEK-293T
human KOR [11] = molecular target: T10, human KOR; assay: cell-based; set-up: expressed in transfected cells; host or cells: HEK 293T (ATCC, CRL-3216); conditions: HTLA
KOR Q115N [12] = molecular target: T13, KOR Q115N (Homo sapiens, UniProt P41145, Q115N); assay: cell-based; set-up: expressed in transfected cells; host or cells: HEK 293T (ATCC, CRL-3216); conditions: read-out: cAMP response (Figure S4C), KOR Q115N, Log [Drug], replicate values
Target sequence in this assay (P41145 whole entry Q115N): as the sequence (P41145 whole entry) above, with Q115N counted along it

KOR Q115N [13] = molecular target: T13, KOR Q115N; assay: cell-based; set-up: TEV cleavage site (C); tTA transcription factor (C); expressed in transfected cells; host or cells: HTLA cells; conditions: read-out: Tango response (Figure S4C), KOR Q115N, Log [Drug], replicate values
Target sequence in this assay (P41145 whole entry Q115N): as the sequence (P41145 whole entry) above, with Q115N counted along it
Target sequence in this assay (P32121 whole entry partner): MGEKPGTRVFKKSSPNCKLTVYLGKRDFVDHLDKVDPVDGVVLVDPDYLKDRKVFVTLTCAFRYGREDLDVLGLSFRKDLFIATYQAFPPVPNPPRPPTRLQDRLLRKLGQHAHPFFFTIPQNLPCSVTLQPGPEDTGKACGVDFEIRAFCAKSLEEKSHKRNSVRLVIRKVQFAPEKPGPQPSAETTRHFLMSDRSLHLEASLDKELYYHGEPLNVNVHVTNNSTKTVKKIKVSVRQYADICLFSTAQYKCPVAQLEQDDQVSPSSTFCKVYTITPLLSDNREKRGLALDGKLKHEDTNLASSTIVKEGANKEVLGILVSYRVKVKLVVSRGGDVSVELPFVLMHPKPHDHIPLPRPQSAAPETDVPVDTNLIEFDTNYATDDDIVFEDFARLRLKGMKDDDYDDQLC

human KOR (Gustducin) [14] = conditions: cited from earlier work
[15] = read-out: Gz (Figure 5A concentration-response, replicate values)
[16] = read-out: βArrestin1 (Figure 5A concentration-response, replicate values)
[17] = read-out: cAMP response (Figure S4C)
[18] = read-out: Tango response (Figure S4C)

T1 sequence (P41145 whole entry): as the sequence (P41145 whole entry) above

With `COC(=O)N1CCN(C(=O)Cc2ccc(Cl)c(Cl)c2)C2C(N3CCCC3)CCCC21` (centres unmarked) [WMS-X600] the Emax% (human KOR (Gi1)) was 101.3%, the Emax (human KOR (Gi1); HEK-293T) was 84 ± 8% and the Emax (human KOR (Gi2)) was 99.3%. The Emax (human KOR (Gi3)) was 99.2%, the Emax (human KOR (GoA)) was 99.8% and the Emax (human KOR (GoB)) was 99.2%. For the same compound, the Emax (human KOR (Gz)) was 97.7%, the activation at 0.001 µM (human KOR (Gz); [15]) was 86.2% and the activation at 0.01 µM (human KOR (Gz); [15]) was 100%. It also gave an activation at 0.1 µM (human KOR (Gz); [15]) of 101%, an activation at 1 µM (human KOR (Gz); [15]) of 95.2% and an activation at 10 µM (human KOR (Gz); [15]) of 97.8%. The Emax% (human KOR (Gustducin) [1]) was 94%, the Emax (human KOR (Gustducin) [1]; HEK-293T) was 93.6% and the Emax (human KOR (β-arrestin 1)) was 93.8%. The activation at 0.01 µM (human KOR (β-arrestin 1); [16]) was 33.5%, the activation at 1 µM (human KOR (β-arrestin 1); [16]) was 86.2% and the activation at 10 µM (human KOR (β-arrestin 1); [16]) was 91.8%. For the same compound, the Emax (human KOR (β-arrestin 2)) was 102 ± 6%, the “increase of potency for G protein signaling” value (human KOR [2]) was 10 fold and the “loss of potency in G protein activation” value (human KOR [2]) was 82 fold. For the same compound, the Emax (human KOR [3]) was 103 ± 1%, the Emax (human KOR [4]) was 98 ± 5% and the “increase of potency for arrestin signaling” value (human KOR [5]) was 5 fold. The “loss of potency in arrestin recruitment” value (human KOR [5]) was 232 fold, the Emax (human KOR [6]) was 110 ± 6% and the Emax (human KOR [7]) was 108 ± 7%. The “ΔΔLog τ/KA (95% confidence interval)” value (KOR [8]) was 1 (0.81-1.19), the “bias factor towards arrestin pathway” value (KOR [9]) was 8.6 and the Emax (human KOR [10]) was 95 ± 3%. For the same compound, the activation at 31.62 pM (human KOR [10]; [17]) was 34.2%, the activation at 0.0001 µM (human KOR [10]; [17]) was 56.7% and the activation at 0.001 µM (human KOR [10]; [17]) was 78.9%. It also gave an activation at 0.01 µM (human KOR [10]; [17]) of 101%, an activation at 0.1 µM (human KOR [10]; [17]) of 103% and an activation at 1 µM (human KOR [10]; [17]) of 91.1%. The activation at […] (human KOR [10]; [17]) was 68.9% and 97.5% and 102% and 90.6%, the Emax (human KOR [11]) was 96 ± 5% and the activation at 0.001 µM (human KOR [11]; [18]) was 78.7%. For the same compound, the activation at 0.1 µM (human KOR [11]; [18]) was 116%, the activation at 1 µM (human KOR [11]; [18]) was 112% and the activation at 10 µM (human KOR [11]; [18]) was 123%. The activation at […] (human KOR [11]; [18]) was 43.5% and 72.6% and 125%, the activation at 1 µM (KOR Q115N [12]; M -6) was 99.1% and the activation at […] (KOR Q115N [12]; M -6.5) was 107%. It also gave an activation at 0.1 µM (KOR Q115N [12]; M -7) of 105%, an activation at […] (KOR Q115N [12]; M -7.5) of 104% and an activation at 0.01 µM (KOR Q115N [12]; M -8) of 103%. It also gave an activation at […] (KOR Q115N [12]; M -8.5) of 100%, an activation at 0.001 µM (KOR Q115N [12]; M -9) of 97.8% and an activation at […] (KOR Q115N [12]; M -9.5) of 101%. For the same compound, the activation at 0.0001 µM (KOR Q115N [12]; M -10) was 92.8%, the activation at 31.62 pM (KOR Q115N [12]; M -10.5) was 81.3% and the activation at 10 pM (KOR Q115N [12]; M -11) was 56.3%. The activation at 3.162 pM (KOR Q115N [12]; M -11.5) was 33.3%, the activation at 10 µM (KOR Q115N [13]; M -5) was 120% and the activation at […] (KOR Q115N [13]; M -5.5) was 124%. It also gave an activation at 1 µM (KOR Q115N [13]; M -6) of 123%, an activation at […] (KOR Q115N [13]; M -6.5) of 107% and an activation at 0.1 µM (KOR Q115N [13]; M -7) of 112%. It also gave an activation at 0.01 µM (KOR Q115N [13]; M -8) of 116%, an activation at […] (KOR Q115N [13]; M -9.5) of 72.6% and an activation at 0.0001 µM (KOR Q115N [13]; M -10) of 78.7%. The activation at 31.62 pM (KOR Q115N [13]; M -10.5) was 43.5%.

In the case of dynorphin A 1–13, the “activity at Gustducin” value (human KOR (Gustducin) [14]) is given as “nearly inactive”.
